Columns and labels:
[1] = biological target: Cathepsin S (UniProt P25774); test: Cathepsin enzyme inhibition assay (fluorogenic peptide substrate Z-Val-Val-Arg-AMC), Cathepsin S; format: biochemical, human and mouse; details: enzyme 1 nM, substrate 20 μM, pH 6.5; read-out: CatS IC50
How it was run: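 Human or mouse cathepsin S (1 nM) was run in 100 mM potassium phosphate pH 6.5 with 5 mM EDTA, 0.001% Triton X-100 and 5 mM DTT. The rise in AMC fluorescence from cleavage was measured, and IC50 values were calculated by standard methods and expressed in μM.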

[2] = biological target: Cat L (UniProt P07711); test: Cathepsin enzyme inhibition assay (fluorogenic peptide substrate Z-Val-Val-Arg-AMC), Cathepsin L; format: biochemical, human and mouse; details: for IC50: enzyme 1 nM, substrate 20 μM, pH 6.5, read-out: CatL IC50
How it was run: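 Cathepsin L at 1 nM was mixed with compound, then started with 20 μM Z-Val-Val-Arg-AMC in pH 6.5 potassium phosphate with EDTA, Triton X-100 and 5 mM DTT. AMC fluorescence (ex 360/em 465 nm) was followed over 20 min. IC50 is given in μM.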

| IC50 [1] [µM] | IC50 [2] [µM] | CatL, % @25 uM ([2]; @25 uM compound) [% @25 uM] | SMILES |
| --- | --- | --- | --- |
| 0.00245 | 0.0555 |  | N#CC1(NC(=O)[C@@H]2C[C@@H](S(=O)(=O)c3ccccc3Cl)CN2C(=O)[C@H](N)c2ccc(Cl)cc2)CC1 [Example 417, (2S,4R)-1-[(R)-2-Amino-2-(4-chloro-phenyl)-acetyl]-4-(2-chloro-benzenesulfonyl)-pyrrolidine-2-carboxylic acid (1-cyano-cyclopropyl)-amide] |
| 0.00017 | 0.051 |  | N#CC1(NC(=O)[C@@H]2C[C@@H](S(=O)(=O)c3ccc(OCC(F)(F)F)cc3Cl)CN2C(=O)C2(c3ccc4ccccc4c3)CC2)CC1 [Example 348, (2S,4R)-4-[2-Chloro-4-(2,2,2-trifluoro-ethoxy)-benzenesulfonyl]-1-(1-naphthalen-2-yl-cyclopropanecarbonyl)-pyrrolidine-2-carboxylic acid (1-cyano-cyclopropyl)-amide] |
| 0.21 | 5.34 |  | N#CCNC(=O)[C@@H]1C[C@@H](S(=O)(=O)c2ccccc2)CN1Cc1ccccc1 [Example 54, (2S,4R)-4-Benzenesulfonyl-1-benzyl-pyrrolidine-2-carboxylic acid cyanomethyl-amide] |
| 0.0027 | ≥ 25 |  | CC(C)(C)OC(=O)N1C[C@H](S(=O)(=O)c2ccc(Br)cc2C(F)(F)F)C[C@H]1C(=O)NC1(C#N)CC1 [Example 7, (2S,4R)-4-(4-Bromo-2-trifluoromethyl-benzenesulfonyl)-2-(1-cyano-cyclopropylcarbamoyl)-pyrrolidine-1-carboxylic acid tert-butyl ester] |
| 0.0033 | ≥ 25 |  | N#CC1(NC(=O)[C@@H]2C[C@@H](S(=O)(=O)c3ccccc3C(F)(F)F)CN2c2cc(C3CC3)n[nH]2)CC1 [Example 400, (2S,4R)-1-(5-Cyclopropyl-2H-pyrazol-3-yl)-4-(2-trifluoromethyl-benzenesulfonyl)-pyrrolidine-2-carboxylic acid (1-cyano-cyclopropyl)-amide] |
| 0.0018 | 12.2 |  | N#CCNC(=O)[C@@H]1C[C@@H](S(=O)(=O)c2ccccc2Cl)CN1C(=O)c1ccc(F)cc1 [Example 59, (2S,4R)-4-(2-Chloro-benzenesulfonyl)-1-(4-fluoro-benzoyl)-pyrrolidine-2-carboxylic acid cyanomethyl-amide] |
| 0.00305 | 2.74 |  | Cc1cc(N2C[C@H](S(=O)(=O)c3ccccc3Cl)C[C@H]2C(=O)NC2(C#N)CC2)n(C2CCSCC2)n1 [Example 465, (2S,4R)-4-(2-chlorophenylsulfonyl)-N-(1-cyanocyclopropyl)-1-(3-methyl-1-(tetrahydro-2H-thiopyran-4-yl)-1H-pyrazol-5-yl)pyrrolidine-2-carboxamide] |
| 0.0022 | 12.6 |  | N#CC1(NC(=O)[C@@H]2C[C@@H](S(=O)(=O)c3ccc(N4CCC(F)(F)C4)cc3Cl)CN2)CC1 [Example 136, (2S,4R)-4-[2-Chloro-4-(3,3-difluoro-pyrrolidin-1-yl)-benzenesulfonyl]-pyrrolidine-2-carboxylic acid (1-cyano-cyclopropyl)-amide formiate] |
| 0.107 | ≥ 25 |  | CCN1CCN(c2ccc(S(=O)(=O)[C@@H]3C[C@H](C(=O)NC4(C#N)CC4)N(c4ncccc4C(F)(F)F)C3)c(Cl)c2)CC1 [Example 191, (2R,4R)-4-[2-Chloro-4-(4-ethyl-piperazin-1-yl)-benzenesulfonyl]-1-(3-trifluoromethyl-pyridin-2-yl)-pyrrolidine-2-carboxylic acid (1-cyano-cyclopropyl)-amide] |
| 2.79 |  | 94 | Cc1cc(N2C[C@H](S(=O)(=O)CC3CC3)C[C@H]2C(=O)NC2(C#N)CC2)n(CCc2ccccc2)n1 [Example 470, (2S,4R)-4-Cyclopropylmethanesulfonyl-1-(5-methyl-2-phenethyl-2H-pyrazol-3-yl)-pyrrolidine-2-carboxylic acid (1-cyano-cyclopropyl)-amide] |
| 0.0004 | 14.6 |  | CC(C)C(=O)N1C[C@H](S(=O)(=O)c2ccccc2Cl)C[C@H]1C(=O)NC1(C#N)CC1 [Example 218, (2S,4R)-4-(2-Chloro-benzenesulfonyl)-1-isobutyryl-pyrrolidine-2-carboxylic acid (1-cyano-cyclopropyl)-amide] |
| 0.000157 | 4.13 |  | CN(C)c1ccc(S(=O)(=O)[C@@H]2C[C@@H](C(=O)NC3(C#N)CC3)N(C(=O)C3(C(F)(F)F)CC3)C2)c(Cl)c1 [Example 292, (2S,4R)-4-(2-Chloro-4-dimethylamino-benzenesulfonyl)-1-(1-trifluoromethyl-cyclopropanecarbonyl)-pyrrolidine-2-carboxylic acid (1-cyano-cyclopropyl)-amide] |
| 1.47 | ≥ 25 |  | N#CC1(NC(=O)[C@@H]2C[C@@H](S(=O)(=O)CC3CC3)CN2C(=O)C2(C(F)(F)F)CC2)CC1 [Example 423, (2S,4R)-4-Cyclopropylmethanesulfonyl-1-(1-trifluoromethyl-cyclopropanecarbonyl)-pyrrolidine-2-carboxylic acid (1-cyano-cyclopropyl)-amide] |
